According to patent US20100120736A1, “Mineralocorticoid Receptor Antagonists” (N.V. ORGANON, priority 2007, published 2010):

Tests used:
[1] = target: T1, mineralocorticoid receptor (MR) (Rattus norvegicus, UniProt P22199); experiment: In vitro binding to mineralocorticoid receptor (MR), displacement of tritiated aldosterone; conditions: read-out: Mineralocorticoid receptor Antagonist activity IC50
T1 sequence (P22199 1-981): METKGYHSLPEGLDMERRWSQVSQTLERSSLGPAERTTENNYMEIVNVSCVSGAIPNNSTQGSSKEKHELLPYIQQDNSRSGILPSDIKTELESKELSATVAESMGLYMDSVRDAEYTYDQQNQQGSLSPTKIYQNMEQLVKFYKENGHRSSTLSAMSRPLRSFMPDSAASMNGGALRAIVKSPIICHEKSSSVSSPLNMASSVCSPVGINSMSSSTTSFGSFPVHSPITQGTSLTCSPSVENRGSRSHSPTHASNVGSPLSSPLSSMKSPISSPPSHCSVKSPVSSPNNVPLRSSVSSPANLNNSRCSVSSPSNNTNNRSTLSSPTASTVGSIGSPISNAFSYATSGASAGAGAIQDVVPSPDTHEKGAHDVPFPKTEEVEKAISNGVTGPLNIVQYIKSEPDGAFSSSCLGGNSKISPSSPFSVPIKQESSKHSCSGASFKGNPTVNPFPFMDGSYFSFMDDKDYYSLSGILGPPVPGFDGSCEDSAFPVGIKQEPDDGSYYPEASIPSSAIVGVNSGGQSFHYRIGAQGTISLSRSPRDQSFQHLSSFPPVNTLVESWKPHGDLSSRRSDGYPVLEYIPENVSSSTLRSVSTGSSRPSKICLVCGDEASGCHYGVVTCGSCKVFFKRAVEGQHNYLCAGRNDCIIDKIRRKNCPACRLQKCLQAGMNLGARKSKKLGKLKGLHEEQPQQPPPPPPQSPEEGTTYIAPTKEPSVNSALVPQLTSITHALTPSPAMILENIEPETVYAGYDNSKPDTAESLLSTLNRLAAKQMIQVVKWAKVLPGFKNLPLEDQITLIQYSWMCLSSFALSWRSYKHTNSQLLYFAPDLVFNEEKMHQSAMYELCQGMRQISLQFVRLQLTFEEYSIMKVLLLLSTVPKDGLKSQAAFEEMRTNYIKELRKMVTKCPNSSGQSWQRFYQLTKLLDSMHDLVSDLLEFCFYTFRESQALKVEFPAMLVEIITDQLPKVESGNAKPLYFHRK
From the text: In vitro binding to the mineralocorticoid receptor (MR) was essentially carried out as reported in the literature (C. E. Gomez-Sanchez and E. P. Gomez-Sanchez, Endocrinology 113 (1983) 1004-1009, Z. S. Krozowski and J. W. Funder, Proc. Natl. Acad. Sci. USA 80 (1983) 6056-; J. H. M. H. Reul and E. R. de Kloet, Endocrinology 117 (1985) 2505-2511; K. E. Sheppard and J. W. Funder, J. Steroid Biochem. 28 (1987) 737-742).
Male Wistar rats Were adrenalectomised and perfused with cold saline after 3 days of survival. Kidneys and hippocampi, respectively, were rapidly dissected and homogenized. A cylosolic fraction was prepared by centrifugation.
Unlabeled RU 28362 (10 nM), a specific GR binder, was added for saturating glucocorticoid receptors. Compounds to be tested, dissolved in DMF and diluted with water to obtain the required concentration, were added in an increasing concentration range (1.0-1000 nM) and allowed to incubate for 3 h. Incubations were terminated by adding dextran-coated charcoal suspension, followed by centrifugation. The supernatant was assayed with a scintillation counter for unbound labelled ligand.

| SMILES | melting point [°C] | IC50 [1] [nM] |
| --- | --- | --- |
| C=C(C)[C@H]1CC[C@H]2[C@@H]3C=CC4=CC(=O)CC[C@]4(C)[C@H]3[C@@H](O)C[C@]12C | 153 to 155 | – |
| C[C@]12C[C@H](O)[C@H]3[C@@H](CCC4=CC(=O)CC[C@@]43C)[C@@H]1CC[C@@H]2C(=O)CO [Corticosterone, reference compound] | – | 5 |
| CC(=O)S[C@@H]1CC2=CC(=O)CC[C@]2(C)[C@H]2CC[C@@]3(C)[C@@H](CC[C@@]34CCC(=O)O4)[C@H]12 [Spironolactone, reference compound] | – | 6 |
| C=C(C)[C@H]1CC[C@H]2[C@@H]3CCC4=CC(=O)CC[C@]4(C)[C@H]3[C@@H](O)C[C@]12C [synthetic example 1, (11β)-11-hydroxy-20-methylpregna-4,20-dien-3-one] | – | 0.44 |
| CC[C@H]1CC[C@H]2[C@@H]3CCC4=CC(=O)C=C[C@]4(C)[C@H]3[C@@H](O)C[C@]12C [synthetic example 14, (11β)-11-hydroxypregna-1,4-dien-3-one] | – | 0.12 |
